Assay results reported in publication PMC9250534, “Synthesis and direct assay of large macrocycle diversities by combinatorial late-stage modification at picomole scale” (Nature Communications, 2022).

Each molecule was assayed against MDM2 (Homo sapiens, UniProt Q00987) (assay: MDM2 binding screen of Libraries 3 and 4: displacement of fluorescent probe F-M8 at 750 nM macrocycle). Conditions: Panel b, Library 3: 63 scaffolds combinatorially acylated with 15 carboxylic acids at 30 picomole scale; displacement of fluorescent peptide probe; macrocycle 750 nM.
Sequence of MDM2 (Q00987 whole entry): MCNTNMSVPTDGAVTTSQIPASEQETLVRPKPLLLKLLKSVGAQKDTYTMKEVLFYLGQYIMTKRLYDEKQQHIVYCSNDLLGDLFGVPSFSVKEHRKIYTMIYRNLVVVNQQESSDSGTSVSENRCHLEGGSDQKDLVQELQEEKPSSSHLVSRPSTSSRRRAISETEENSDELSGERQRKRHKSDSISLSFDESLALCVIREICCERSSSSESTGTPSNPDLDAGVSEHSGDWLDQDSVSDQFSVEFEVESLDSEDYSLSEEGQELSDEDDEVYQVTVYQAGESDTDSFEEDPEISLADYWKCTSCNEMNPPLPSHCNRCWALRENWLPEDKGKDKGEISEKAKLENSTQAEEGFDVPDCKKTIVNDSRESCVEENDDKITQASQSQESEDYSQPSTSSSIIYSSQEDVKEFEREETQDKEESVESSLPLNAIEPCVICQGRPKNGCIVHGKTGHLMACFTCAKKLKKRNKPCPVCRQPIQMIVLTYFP
Summary of the method: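 Cyclic peptide scaffolds were acylated in DMSO with carboxylic acids (20 equiv.), HBTU and DABCO for 6 h at room temperature. Reactions were quenched overnight in 100 mM Tris-Cl pH 7.4, 0.01% Tween20. The fluorescein conjugate was also competed with nutlin-3a.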
With `O=C(NC[C@@H]1NC(=O)[C@H]2CCCN(C2)C(=O)CCSSCCNC(=O)[C@H](Cc2c[nH]c3ccccc23)NC1=O)c1ccc2ccccc2c1` [X-Nip-Dap-Trp + Acid 107] the “fraction of fluorescent probe displaced” value was 0.440. For `O=C(/C=C/c1ccc(Cl)cc1)NC[C@@H]1NC(=O)[C@H]2CCCN(C2)C(=O)CCSSCCNC(=O)[C@H](Cc2c[nH]c3ccccc23)NC1=O` [X-Nip-Dap-Trp + Acid 108], the “fraction of fluorescent probe displaced” value was 0.421. In the case of `O=C(/C=C/c1ccc(OCc2ccccc2)cc1)NC[C@@H]1NC(=O)[C@H]2CCCN(C2)C(=O)CCSSCCNC(=O)[C@H](Cc2c[nH]c3ccccc23)NC1=O` [X-Nip-Dap-Trp + Acid 110], the “fraction of fluorescent probe displaced” value is reported as 0.015. In the case of `O=C(/C=C/c1ccc2ccccc2c1)NC[C@@H]1NC(=O)[C@H]2CCCN(C2)C(=O)CCSSCCNC(=O)[C@H](Cc2c[nH]c3ccccc23)NC1=O` [X-Nip-Dap-Trp + Acid 112], the “fraction of fluorescent probe displaced” value is reported as 0.574. In the case of `O=C(CCS(=O)(=O)c1ccccc1)NC[C@@H]1NC(=O)[C@H]2CCCN(C2)C(=O)CCSSCCNC(=O)[C@H](Cc2c[nH]c3ccccc23)NC1=O` [X-Nip-Dap-Trp + Acid 114], the “fraction of fluorescent probe displaced” value is reported as -0.012. `O=C(/C=C/c1ccc(Cl)cc1)NCCN1CC(=O)N[C@@H](Cc2cccc3ccccc23)C(=O)NCCSSCCC(=O)N2CCC[C@@H](C2)C1=O` [X-Nip-N-Aeg-1-NaI + Acid 108] was tested, and the “fraction of fluorescent probe displaced” value was 0.021. `O=C(/C=C/c1ccc(OCc2ccccc2)cc1)NCCN1CC(=O)N[C@@H](Cc2cccc3ccccc23)C(=O)NCCSSCCC(=O)N2CCC[C@@H](C2)C1=O` [X-Nip-N-Aeg-1-NaI + Acid 110] was tested, and the “fraction of fluorescent probe displaced” value was -0.00533. `O=C1CN(CCNC(=O)c2cccc(Oc3ccccc3)c2)C(=O)[C@H]2CCCN(C2)C(=O)CCSSCCNC(=O)[C@H](Cc2cccc3ccccc23)N1` [X-Nip-N-Aeg-1-NaI + Acid 111] was tested, and the “fraction of fluorescent probe displaced” value was 0.035. With `O=C(/C=C/c1ccc2ccccc2c1)NCCN1CC(=O)N[C@@H](Cc2cccc3ccccc23)C(=O)NCCSSCCC(=O)N2CCC[C@@H](C2)C1=O` [X-Nip-N-Aeg-1-NaI + Acid 112] the “fraction of fluorescent probe displaced” value was 0.015. `O=C(CCS(=O)(=O)c1ccccc1)NCCN1CC(=O)N[C@@H](Cc2cccc3ccccc23)C(=O)NCCSSCCC(=O)N2CCC[C@@H](C2)C1=O` [X-Nip-N-Aeg-1-NaI + Acid 114] was tested, and the “fraction of fluorescent probe displaced” value was 0.008. `O=C1CN(CCNC(=O)c2ccc(Cl)cc2)C(=O)[C@H]2CCCN(C2)C(=O)CCSSCCNC(=O)[C@H](Cc2ccc3ccccc3c2)N1` [X-Nip-N-Aeg-2-Nal + Acid 25] was tested, and the “fraction of fluorescent probe displaced” value was 0.00133. For `O=C1CN(CCNC(=O)c2ccc3ccccc3c2)C(=O)[C@H]2CCCN(C2)C(=O)CCSSCCNC(=O)[C@H](Cc2ccc3ccccc3c2)N1` [X-Nip-N-Aeg-2-Nal + Acid 107], the “fraction of fluorescent probe displaced” value was 0.011. `O=C(/C=C/c1ccc(OCc2ccccc2)cc1)NCCN1CC(=O)N[C@@H](Cc2ccc3ccccc3c2)C(=O)NCCSSCCC(=O)N2CCC[C@@H](C2)C1=O` [X-Nip-N-Aeg-2-Nal + Acid 110] was tested, and the “fraction of fluorescent probe displaced” value was 0.035. `O=C1CN(CCNC(=O)c2cccc(Oc3ccccc3)c2)C(=O)[C@H]2CCCN(C2)C(=O)CCSSCCNC(=O)[C@H](Cc2ccc3ccccc3c2)N1` [X-Nip-N-Aeg-2-Nal + Acid 111] was tested, and the “fraction of fluorescent probe displaced” value was 0.00133. With `CC(Oc1cccc(Cl)c1)C(=O)NCCN1CC(=O)N[C@@H](Cc2ccc3ccccc3c2)C(=O)NCCSSCCC(=O)N2CCC[C@@H](C2)C1=O` (stereo partly drawn) [X-Nip-N-Aeg-2-Nal + Acid 113] the “fraction of fluorescent probe displaced” value was 0.00133. With `O=C(CCS(=O)(=O)c1ccccc1)NCCN1CC(=O)N[C@@H](Cc2ccc3ccccc3c2)C(=O)NCCSSCCC(=O)N2CCC[C@@H](C2)C1=O` [X-Nip-N-Aeg-2-Nal + Acid 114] the “fraction of fluorescent probe displaced” value was 0.015. For `O=C1CN(CCNC(=O)c2cccc(Oc3ccccc3)c2)C(=O)[C@H]2CCCN(C2)C(=O)CCSSCCNC(=O)[C@H](Cc2c[nH]c3cc(Cl)ccc23)N1` [X-Nip-N-Aeg-Cl-Trp + Acid 111], the “fraction of fluorescent probe displaced” value was -0.00533. `O=C(/C=C/c1ccc2ccccc2c1)NCCN1CC(=O)N[C@@H](Cc2c[nH]c3cc(Cl)ccc23)C(=O)NCCSSCCC(=O)N2CCC[C@@H](C2)C1=O` [X-Nip-N-Aeg-Cl-Trp + Acid 112] was tested, and the “fraction of fluorescent probe displaced” value was 0.00133. `CC(Oc1cccc(Cl)c1)C(=O)NCCN1CC(=O)N[C@@H](Cc2c[nH]c3cc(Cl)ccc23)C(=O)NCCSSCCC(=O)N2CCC[C@@H](C2)C1=O` (stereo partly drawn) [X-Nip-N-Aeg-Cl-Trp + Acid 113] was tested, and the “fraction of fluorescent probe displaced” value was -0.019. `O=C(/C=C/c1ccc2ccccc2c1)NCCN1CC(=O)N[C@H](Cc2c[nH]c3ccccc23)C(=O)NCCSSCCC(=O)N2CCC[C@@H](C2)C1=O` [X-Nip-N-Aeg-D-Trp + Acid 112] was tested, and the “fraction of fluorescent probe displaced” value was 0.055. In the case of `Cn1cc(C[C@@H]2NC(=O)CN(CCNC(=O)c3ccc(Cl)s3)C(=O)[C@H]3CCCN(C3)C(=O)CCSSCCNC2=O)c2ccccc21` [X-Nip-N-Aeg-Me-Trp + Acid 14], the “fraction of fluorescent probe displaced” value is reported as -0.012. In the case of `Cn1cc(C[C@@H]2NC(=O)CN(CCNC(=O)c3ccc4ccccc4c3)C(=O)[C@H]3CCCN(C3)C(=O)CCSSCCNC2=O)c2ccccc21` [X-Nip-N-Aeg-Me-Trp + Acid 107], the “fraction of fluorescent probe displaced” value is reported as 0.011. With `Cn1cc(C[C@@H]2NC(=O)CN(CCNC(=O)/C=C/c3ccc(OCc4ccccc4)cc3)C(=O)[C@H]3CCCN(C3)C(=O)CCSSCCNC2=O)c2ccccc21` [X-Nip-N-Aeg-Me-Trp + Acid 110] the “fraction of fluorescent probe displaced” value was 0.00133. With `CC(Oc1cccc(Cl)c1)C(=O)NCCN1CC(=O)N[C@@H](Cc2cn(C)c3ccccc23)C(=O)NCCSSCCC(=O)N2CCC[C@@H](C2)C1=O` (stereo partly drawn) [X-Nip-N-Aeg-Me-Trp + Acid 113] the “fraction of fluorescent probe displaced” value was 0.008. In the case of `Cn1cc(C[C@@H]2NC(=O)CN(CCNC(=O)CCS(=O)(=O)c3ccccc3)C(=O)[C@H]3CCCN(C3)C(=O)CCSSCCNC2=O)c2ccccc21` [X-Nip-N-Aeg-Me-Trp + Acid 114], the “fraction of fluorescent probe displaced” value is reported as 0.00133. In the case of `CN1C(=O)CN(CCNC(=O)c2ccc(Cl)s2)C(=O)[C@H]2CCCN(C2)C(=O)CCSSCCNC(=O)[C@@H]1Cc1c[nH]c2ccccc12` [X-Nip-N-Aeg-NMe-Trp + Acid 14], the “fraction of fluorescent probe displaced” value is reported as 0.00133. In the case of `CN1C(=O)CN(CCNC(=O)/C=C/c2ccc(Cl)cc2)C(=O)[C@H]2CCCN(C2)C(=O)CCSSCCNC(=O)[C@@H]1Cc1c[nH]c2ccccc12` [X-Nip-N-Aeg-NMe-Trp + Acid 108], the “fraction of fluorescent probe displaced” value is reported as 0.028. With `CN1C(=O)CN(CCNC(=O)c2cccc(Oc3ccccc3)c2)C(=O)[C@H]2CCCN(C2)C(=O)CCSSCCNC(=O)[C@@H]1Cc1c[nH]c2ccccc12` [X-Nip-N-Aeg-NMe-Trp + Acid 111] the “fraction of fluorescent probe displaced” value was -0.012. With `CN1C(=O)CN(CCNC(=O)CCS(=O)(=O)c2ccccc2)C(=O)[C@H]2CCCN(C2)C(=O)CCSSCCNC(=O)[C@@H]1Cc1c[nH]c2ccccc12` [X-Nip-N-Aeg-NMe-Trp + Acid 114] the “fraction of fluorescent probe displaced” value was -0.00533. For `O=C1CN(CCNC(=O)c2ccc(Cl)s2)C(=O)[C@H]2CCCN(C2)C(=O)CCSSCCNC(=O)[C@H](Cc2c[nH]c3ccccc23)N1` [X-Nip-N-Aeg-Trp + Acid 14], the “fraction of fluorescent probe displaced” value was -0.00533. For `O=C1CN(CCNC(=O)c2cccc(Oc3ccccc3)c2)C(=O)[C@H]2CCCN(C2)C(=O)CCSSCCNC(=O)[C@H](Cc2c[nH]c3ccccc23)N1` [X-Nip-N-Aeg-Trp + Acid 111], the “fraction of fluorescent probe displaced” value was 0.015. In the case of `O=C(CCS(=O)(=O)c1ccccc1)NCCN1CC(=O)N[C@@H](Cc2c[nH]c3ccccc23)C(=O)NCCSSCCC(=O)N2CCC[C@@H](C2)C1=O` [X-Nip-N-Aeg-Trp + Acid 114], the “fraction of fluorescent probe displaced” value is reported as 0.035. For `O=C1CN(CCNC(=O)C2COc3ccccc3O2)C(=O)[C@H]2CCCN(C2)C(=O)CCSSCCNC(=O)[C@H](Cc2c[nH]c3ccccc23)N1` (stereo partly drawn) [X-Nip-N-Aeg-Trp + Acid 115], the “fraction of fluorescent probe displaced” value was 0.021.

Same assay, conditions: Panel c, Library 4: best nine scaffolds and 15 additional carboxylic acids; displacement of fluorescent probe
With `O=C(/C=C/c1ccc(F)cc1)NC[C@@H]1NC(=O)[C@H]2CCCN(C2)C(=O)CCSSCCNC(=O)[C@H](Cc2c[nH]c3ccccc23)NC1=O` [X-Nip-Dap-Trp + Acid 116] the “fraction of fluorescent probe displaced” value was 0.443. In the case of `CCOc1ccc(/C=C/C(=O)NC[C@@H]2NC(=O)[C@H]3CCCN(C3)C(=O)CCSSCCNC(=O)[C@H](Cc3c[nH]c4ccccc34)NC2=O)cc1` [X-Nip-Dap-Trp + Acid 117], the “fraction of fluorescent probe displaced” value is reported as 0.533. For `CCCOc1ccc(/C=C/C(=O)NC[C@@H]2NC(=O)[C@H]3CCCN(C3)C(=O)CCSSCCNC(=O)[C@H](Cc3c[nH]c4ccccc34)NC2=O)cc1` [X-Nip-Dap-Trp + Acid 118], the “fraction of fluorescent probe displaced” value was 0.435. In the case of `O=C(/C=C/c1ccc(Cl)c(Cl)c1)NC[C@@H]1NC(=O)[C@H]2CCCN(C2)C(=O)CCSSCCNC(=O)[C@H](Cc2c[nH]c3ccccc23)NC1=O` [X-Nip-Dap-Trp + Acid 119], the “fraction of fluorescent probe displaced” value is reported as 0.435. For `O=C(/C=C/c1cccc(Cl)c1)NC[C@@H]1NC(=O)[C@H]2CCCN(C2)C(=O)CCSSCCNC(=O)[C@H](Cc2c[nH]c3ccccc23)NC1=O` [X-Nip-Dap-Trp + Acid 121], the “fraction of fluorescent probe displaced” value was 0.468. For `O=C(/C=C/c1cccc(C(F)(F)F)c1)NC[C@@H]1NC(=O)[C@H]2CCCN(C2)C(=O)CCSSCCNC(=O)[C@H](Cc2c[nH]c3ccccc23)NC1=O` [X-Nip-Dap-Trp + Acid 122], the “fraction of fluorescent probe displaced” value was 0.395. In the case of `CC(=Cc1ccccc1)C(=O)NCC1NC(=O)C2CCCN(C2)C(=O)CCSSCCNC(=O)C(Cc2c[nH]c3ccccc23)NC1=O` (stereo not drawn) [X-Nip-Dap-Trp + Acid 123], the “fraction of fluorescent probe displaced” value is reported as 0.044. With `CC(C)c1ccc(C=CC(=O)NCC2NC(=O)C3CCCN(C3)C(=O)CCSSCCNC(=O)C(Cc3c[nH]c4ccccc34)NC2=O)cc1` (stereo not drawn) [X-Nip-Dap-Trp + Acid 127] the “fraction of fluorescent probe displaced” value was 0.313. `O=C(NC[C@@H]1NC(=O)[C@H]2CCCN(C2)C(=O)CCSSCCNC(=O)[C@H](Cc2c[nH]c3ccccc23)NC1=O)c1cnc2ccccc2n1` [X-Nip-Dap-Trp + Acid 130] was tested, and the “fraction of fluorescent probe displaced” value was 0.036.
